Measured values published in paper PMC7557582, “Broad-Spectrum Antimicrobial Activity and Improved Stability of a D-Amino Acid Enantiomer of DMPC-10A, the Designed Derivative of Dermaseptin Truncates” (Antibiotics, 2020).
Converted amounts (≈) assume the structure as drawn. Non-standard residues stand in square brackets, D forms with d. Residues, ends and D or L forms follow the SMILES beside them. Cha = N[C@@H](CC1CCCCC1)C(=O)O

Tests used:
[1] = tested on: S. aureus (NCTC 10788); type: cell-based, Staphylococcus aureus; conditions: NCTC 10788, pH 7.4
Description: (§3) Gram-positive bacteria Staphylococcus aureus (NCTC 10788) and Enterococcus faecalis (NCTC 12697) and Gram-negative bacteria Escherichia coli (NCTC 10418), Pseudomonas aeruginosa (ATCC 27853), and Klebsiella pneumoniae (ATCC 43816) were tested. […] All the bacterial strains were inoculated in Mueller Hinton broth (MHB), pH 7.4 (Oxiod, Basingstoke, UK) at 37 °C. Then, the log-phase bacteria were mixed with the peptide at the concentrations from 512 to 1 µM in two-fold dilution, in a 96 well-plate. The wells contained sterilized MHB and bacteria cultures were employed as a blank and growth control, respectively.

[2] = tested on: MRSA (NCTC 12493); type: cell-based, methicillin-resistant S. aureus; conditions: NCTC 12493, pH 7.4
Description: as §3

[3] = tested on: E. faecalis (NCTC 12697); type: cell-based, Enterococcus faecalis; conditions: NCTC 12697, pH 7.4
Description: as §3

[4] = tested on: E. coli (NCTC 10418); type: cell-based, Escherichia coli; conditions: NCTC 10418, pH 7.4
Description: as §3

[5] = tested on: K. pneumoniae (ATCC 43816); type: cell-based, Klebsiella pneumoniae; conditions: ATCC 43816, pH 7.4
Description: as §3

[6] = tested on: K. pneumoniae (ATCC BAA 1705); type: cell-based, Klebsiella pneumoniae; conditions: ATCC BAA 1705, pH 7.4
Description: as §3

[7] = tested on: K. pneumoniae (ATCC BAA 2342); type: cell-based, Klebsiella pneumoniae; conditions: ATCC BAA 2342, pH 7.4
Description: as §3

[8] = tested on: P. aeruginosa (ATCC 27853); type: cell-based, Pseudomonas aeruginosa; conditions: ATCC 27853, pH 7.4
Description: as §3

[9] = tested on: S. aureus (NCTC 10788); type: cell-based, Staphylococcus aureus
Description: (§1) Furthermore, the antimicrobial activity in the presence of MgCl2, CaCl2, NaCl and 10% fetal bovine serum (FBS) was investigated. In detail, 2 and 5 mM of MgCl2 and CaCl2, and 150 and 375 mM NaCl, were applied, respectively. The supplements were added into the medium that was used for diluting the bacteria suspension. Then, the diluted bacteria culture was mixed with the peptide stock solution in the 96-well plate, as mentioned above. The assay was performed three times and each assay contained 5 replicates.

[10] = tested on: E. coli (NCTC 10418); type: cell-based, Escherichia coli
Description: as §1

[11] = molecular target: T1, trypsin (Bos taurus, UniProt P00760); test: Enzyme stability assay, trypsin; type: in vitro ADME; conditions: peptide in PBS, peptide:trypsin 100:1 (m/m), time points 0-120 min, stopped with 10% TFA, RP-HPLC peak area, three replicates
T1 construct: gene PRSS1
T1 sequence (P00760 24-246): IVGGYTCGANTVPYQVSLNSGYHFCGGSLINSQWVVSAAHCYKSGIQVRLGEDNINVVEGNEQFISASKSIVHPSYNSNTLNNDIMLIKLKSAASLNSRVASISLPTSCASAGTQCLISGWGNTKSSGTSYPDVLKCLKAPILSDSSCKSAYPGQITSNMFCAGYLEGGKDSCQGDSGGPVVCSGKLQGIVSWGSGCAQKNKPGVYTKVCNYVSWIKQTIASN
Description: (§2) The peptides were dissolved in phosphate-buffered saline (PBS) and mixed with the respective enzyme (trypsin and chymotrypsin) with a ratio of 100:1 (m/m). Then, 135 µl of the reaction solution was transferred into a new vial. The hydrolysis reaction was immediately terminated by adding 15 µl of 10% TFA at the different time points (0, 5, 10, 20, 40, 60, 120 min). The mixture was then analyzed by reverse-phase HPLC and respective peak areas were calculated to obtain the residual amount of peptides at different times.

[12] = molecular target: chymotrypsin (Bos taurus, UniProt P00766); test: Enzyme stability assay, chymotrypsin; type: in vitro ADME; conditions: peptide in PBS, peptide:chymotrypsin 100:1 (m/m), time points 0-120 min, stopped with 10% TFA, RP-HPLC peak area, three replicates
Description: as §2

[13] = cited from earlier work
From the text: Dermaseptins are a class of cationic AMPs that were discovered from the skin of Phyllomedusa frogs, usually consisting of 28–34 amino acids. They can form an amphipathic α-helix in amphiphilic environments, which makes them bind easily to bacterial lipid bilayers. Dermaseptins contain a conserved Trp residue in position three and a unique internal motif, -AAA/GKAAL/G/NA-, and exert broad-spectrum antimicrobial activity against a range of ESKAPE pathogens. […] Compared with the other AMPs applied using the same model, such as Japonicin-2LF [53], DMPC-10B exerted relatively stronger efficacy. Japonicin-2LF prevented around 50% mortality at 50 mg/kg in treatment of MRSA infection, but DMPC-10B achieved similar efficacy at 20 mg/kg.

In the case of `CC(C)C[C@H](NC(=O)[C@H](C)N)C(=O)N[C@@H](Cc1c[nH]c2ccccc12)C(=O)N[C@@H](CCCCN)C(=O)N[C@@H](CCCCN)C(=O)N[C@@H](CC(C)C)C(=O)N[C@@H](CC(C)C)C(=O)N[C@@H](CCCCN)C(=O)N[C@@H](CCCCN)C(=O)N[C@@H](CC1CCCCC1)C(N)=O` [DMPC-10A] (H-ALWKKLLKK[Cha]-NH2), the MBC [1] is reported as 8 µM (≈ 10.2 µg/mL), the MIC [1] is reported as 4 µM (≈ 5.12 µg/mL) and the MBC [2] is reported as 16 µM (≈ 20.5 µg/mL). It also gave an MIC [2] of 8 µM (≈ 10.2 µg/mL), an MBC [3] of 64 µM (≈ 81.9 µg/mL) and an MIC [3] of 64 µM (≈ 81.9 µg/mL). The MBC [4] was 8 µM (≈ 10.2 µg/mL), the MIC [4] was 8 µM (≈ 10.2 µg/mL) and the MBC [5] was 64 µM (≈ 81.9 µg/mL). The MIC [5] was 4 µM (≈ 5.12 µg/mL), the MBC [6] was 32 µM (≈ 41 µg/mL) and the MIC [6] was 32 µM (≈ 41 µg/mL). It also gave an MBC [7] of 16 µM (≈ 20.5 µg/mL), an MIC [7] of 16 µM (≈ 20.5 µg/mL) and an MBC [8] of 4 µM (≈ 5.12 µg/mL). The MIC [8] was 4 µM (≈ 5.12 µg/mL), the “MIC with CaCl2 5 mM” value [9] was 64 µM and the “MIC with FBS 10%” value [9] was 16 µM. For the same molecule, the “MIC with MgCl2 5 mM” value [9] was 64 µM, the “MIC with NaCl 150 mM” value [9] was 32 µM and the “MIC with NaCl 375 mM” value [9] was 64 µM. For the same molecule, the “MIC, no additive” value [9] was 4 µM (≈ 5.12 µg/mL), the “MIC with CaCl2 5 mM” value [10] was 64 µM and the “MIC with FBS 10%” value [10] was 16 µM. For the same molecule, the “MIC with MgCl2 5 mM” value [10] was 64 µM, the “MIC with NaCl 150 mM” value [10] was 16 µM and the “MIC with NaCl 375 mM” value [10] was 32 µM. For the same molecule, the “MIC, no additive” value [10] was 8 µM (≈ 10.2 µg/mL), the “time in which trypsin completely cleaved the peptide” value [11] was 10 min and the “time in which chymotrypsin cleaved the peptide” value [12] was 40 min. For the same molecule, the “hemolytic effect” value [13] was “considerable hemolytic effect”.
